Tests used:
[1] = Gao et al., Journal of Polymer Research 2011; cited from earlier work
[2] = tested on: AhR pathway in intestinal human colon adenocarcinoma
[3] = Pre-formulation solubility of DMVT-505 in excipients and solvent systems; assay type: physicochemical
Method: (§1) Pre-formulation experiments were performed to understand the solubility and stability of the drug in excipients. In relation to drug/excipient compatibility, DMVT-505 was stable for 2 weeks (peak purity>98%) in most excipients at 40° C., with the exception of MCTs and DMI, which may be due to oxidation. Based on the pre-formulation data, aqueous-based solvent systems were designed for WS3. Further formulations were prepared combining suitable phases developed during all the workstreams to obtain formulations to limit the suspected drug partitioning between the aqueous and oil phases (WS2/3/4).
Experiments conducted on the stability of DMVT-505 in individual excipients also allowed for the identification of suitable alternative oil and aqueous phase excipients, and this information was used during the formulation development as the basis of solvent system design.
For WS3, aqueous phases were designed and DMVT-505 solubility in such systems was determined, ahead of formulation development where formulations were sequentially developed, tested and optimized using accelerated physical stability data generated primarily via the LUMiSizer platform. […] Additionally, combined aspects of each workstream (WS2/3/4) were developed with optimal physical stability and to limit the partitioning of the drug between the oil and aqueous phases.
For WS2, oil phase solvent systems were designed and DMVT-505 solubility in such systems was determined, ahead of formulation development where formulations were sequentially developed, tested and optimized using accelerated physical stability data generated primarily via the LUMiSizer platform. […] A number of emulsifiers and surfactant systems (WS4) were screened in order to achieve a formulation which was, theoretically, as stable as CR01. To do this, WS4 formulations were rationally designed, prepared and tested in a similar fashion to the previous workstreams. Additionally, combined aspects of each workstream (WS2/3/4) were developed with optimal physical stability and to limit the partitioning of the drug between the oil and aqueous phases.

[4] = 28-day twice daily topical administration: toxicokinetics, skin concentrations, dermal irritancy and toxicity (Example 7); design: species or system Gottingen minipigs; conditions: minipig, in vivo
Method: Following dose application on each dosing day, the dose sites were semi-occluded for approximately 20±1 hours from the first dose and then gently washed before the next dose was applied.

AhR target gene, cyp1a1 = conditions: primary human keratinocytes, human or rodent leukocytes
[5] = Drug/excipient compatibility, 2 weeks at 40° C.; assay type: physicochemical; conditions: 2 weeks in most excipients at 40° C., with the exception of MCTs and DMI
Method: as §1
as §1, with “oil-based” for “aqueous-based”, “WS2. Formulations based on these solvent systems, along with formulations with alternative emulsifiers (WS4) were developed.” for “WS3.”

[6] = Nonclinical study, subcutaneous 3 mg/kg/day, 13 weeks (NOAEL); assay type: in vivo; conditions: Rat

CC(C)c1c(O)cc(/C=C/c2ccccc2)cc1O [3,5-Dihydroxy-4-isopropyl-trans-stilbene]
sensitivity to oxidation and photo degradation [1]: sensitive to oxidation and photo degradation
AhR pathway activity [2]: activator
solubility in diisopropyl adipate [3]: good solubilizer
solubility in mineral oil [3]: non-solvent
solubility in water [3]: not soluble in water
solubility ([3]; in fixed oils, fatty alcohols, glycols and volatile solvent): > 7 % w/w
dermal irritation at the dose site [4]: no test article-related dermal irritation
systemic toxicity [4]: no systemic toxicity
expression of the AhR target gene cyp1a1 (AhR target gene, cyp1a1): induce the expression
peak purity [5]: > 98%
AUC NOAEL [6]: 99 ng·h/mL

Source: US20230225987A1, “TOPICAL PHARMACEUTICAL COMPOSITIONS” (Dermavant Sciences GmbH, priority 2020, published 2023)
